From patent US8580957B2, “Thetrahydroquinolines derivatives as bromodomain inhibitors” (GlaxoSmithKline LLC, priority 2009, dated 2013)
Structures can show the parent of a compound that is named as a salt.

Columns and labels:
[1] = system: LPS induced IL-6 secretion from whole blood; test: Measurement of LPS Induced IL-6 Secretion from Whole Blood; format: cell-based; conditions: LPS 200 ng/ml, 24 hours, read-out: pIC50 (IL-6 levels) (converted)
Method: Measurement of LPS Induced IL-6 Secretion from Whole Blood
(§1) Activation of monocytic cells by agonists of toll-like receptors such as bacterial lipopolysaccharide (LPS) results in production of key inflammatory mediators including IL-6. Such pathways are widely considered to be central to the pathophysiology of a range of auto-immune and inflammatory disorders.
Compounds to be tested are diluted to give a range of appropriate concentrations of which 1 ul of the diluted stocks is added to a 96 well plate. Following addition of whole blood (130 ul) the plates are incubated at 37 degrees (5% CO2) for 30 min before the addition of 10 ul of 2.8 ug/ml LPS, diluted in complete RPMI 1640 (final concentration=200 ng/ml), to give a total volume of 140 ul per well. After further incubation for 24 hours at 37 degrees, 140 ul of PBS are added to each well. The plates are sealed, shaken for 10 minutes and then centrifuged (2500 rpm×10 min). 100 ul of the supernatant are removed and IL-6 levels assayed by immunoassay (typically by MesoScale Discovery technology) either immediately or following storage at −20 degrees. Concentration response curves for each compound was generated from the data and an IC50 value was calculated.

[2] = system: TNFα levels in LPS stimulated whole blood; test: LPS Stimulated Whole Blood Measuring TNFα Levels Assay; format: cell-based; conditions: LPS 200 ng/ml, 24 hours, read-out: pIC50 (TNFα levels) (converted)
Method: LPS Stimulated Whole Blood Measuring TNFα Levels Assay
as §1, with “TNFα.” for “IL-6.”
Compounds to be tested are diluted to give a range of appropriate concentrations and 1 ul of the dilution stocks is added to wells of a 96 plate. Following addition of whole blood (130 ul) the plates are incubated at 37 degrees (5% CO2) for 30 min before the addition of 10 ul of 2.8 ug/ml LPS, diluted in complete RPMI 1640 (final concentration=200 ng/ml), to give a total volume of 140 ul per well. After further incubation for 24 hours at 37 degrees, 140 ul of PBS are added to each well. The plates are sealed, shaken for 10 minutes and then centrifuged (2500 rpm×10 min). 100 ul of the supernatant are removed and TNFα levels assayed by immunoassay (typically by MesoScale Discovery technology) either immediately or following storage at −20 degrees. Dose response curves for each compound was generated from the data and an IC50 value was calculated.

Structure (SMILES) | IC50 [1] | IC50 [2]
CC(=O)N1c2ccc(-c3ccc(CN4CCCCC4)cc3)cc2[C@@H](Nc2ccc(C)cn2)C[C@H]1C (racemic) [Example 135, (cis)-1-Acetyl-2-methyl-N-(5-methyl-2-pyridinyl)-6-[4-(1-piperidinylmethyl)phenyl]-1,2,3,4-tetrahydro-4-quinolinamine formate salt] |  | ≤ 10 µM
CNCCn1cc(-c2ccc3c(c2)[C@H](Nc2cc(C)ccn2)C[C@H](C)N3C(C)=O)cn1 [Example 149, (2S,4R)-1-Acetyl-2-methyl-6-{1-[2-(methylamino)ethyl]-1H-pyrazol-4-yl}-N-(4-methyl-2-pyridinyl)-1,2,3,4-tetrahydro-4-quinolinamine hydrochloride] | ≤ 10 µM | 
CC(=O)N1c2ccc(-c3ccc(CN4CCCCC4)cc3)cc2[C@@H](Nc2ccc(C(F)(F)F)cn2)C[C@H]1C (racemic) [Example 134, (cis)-1-Acetyl-2-methyl-6-[4-(1-piperidinylmethyl)phenyl]-N-[5-(trifluoromethyl)-2-pyridinyl]-1,2,3,4-tetrahydro-4-quinolinamine formate salt] |  | ≤ 10 µM
CC(=O)N1c2ccc(-n3cnc(C)c3)cc2[C@H](Nc2ccc(C)cn2)C[C@@H]1C [Example 190] | > 10 µM | 
CC(=O)N1c2ccc(-c3ccc(CN4CCCCC4)cc3)cc2[C@@H](Nc2ccccn2)C[C@H]1C (racemic) [Example 133, (cis)-1-Acetyl-2-methyl-6-[4-(1-pipendinylmethyl)phenyl]-N-2-pyridinyl-1,2,3,4-tetrahydro-4-quinolinamine formate salt] |  | ≤ 10 µM
CC[C@@H]1C[C@H](Nc2ccccc2)c2cc(-c3ccc(CN4CCCCC4)cc3)ccc2N1C(C)=O (relative stereo) [Example 163, (cis)-1-Acetyl-2-ethyl-N-phenyl-6-[4-(1-piperidinylmethyl)phenyl]-1,2,3,4-tetrahydro-4-quinolinamine formate salt] |  | ≤ 10 µM
CNCCn1cc(-c2ccc3c(c2)[C@H](Nc2cccc(F)n2)C[C@H](C)N3C(C)=O)cn1 [Example 151, (2S,4R)-1-Acetyl-N-(6-fluoro-2-pyridinyl)-2-methyl-6-{1-[2-(methylamino)ethyl]-1H-pyrazol-4-yl}-1,2,3,4-tetrahydro-4-quinolinamine hydrochloride] | ≤ 10 µM | 
CNCCn1cc(-c2ccc3c(c2)[C@H](Nc2ncccn2)C[C@H](C)N3C(C)=O)cn1 [Example 153, (2S,4R)-1-Acetyl-2-methyl-6-{1-[2-(methylamino)ethyl]-1H-pyrazol-4-yl}-N-2-pyrimidinyl-1,2,3,4-tetrahydro-4-quinolinamine hydrochloride] | ≤ 10 µM | 
CC(=O)N1c2ccc(-c3ccc(C(=O)O)cc3)cc2[C@H](Nc2ccc(C)cn2)C[C@@H]1C [Example 126, 4-{(2S,4R)-1-Acetyl-2-methyl-4-[(5-methyl-2-pyridinyl)amino]-1,2,3,4-tetrahydro-6-quinolinyl}benzoic acid] | > 10 µM | 
CC(=O)N1c2ccc(-c3ccc(CN4CCCCC4)cc3)cc2[C@@H](Nc2ccncc2)C[C@H]1C (racemic) [Example 138, (cis)-1-Acetyl-2-methyl-6-[4-(1-piperidinylmethyl)phenyl]-N-4-pyridinyl-1,2,3,4-tetrahydro-4-quinolinamine trifluoroacetate] |  | ≤ 10 µM
CNCCn1cc(-c2ccc3c(c2)[C@H](Nc2ncccc2C)C[C@H](C)N3C(C)=O)cn1 [Example 148, (2S,4R)-1-Acetyl-2-methyl-6-{1-[2-(methylamino)ethyl]-1H-pyrazol-4-yl}-N-(3-methyl-2-pyridinyl)-1,2,3,4-tetrahydro-4-quinolinamine hydrochloride] | ≤ 10 µM | 

Next, values leading:

IC50 [1] | IC50 [2] | Structure (SMILES)
≤ 10 µM |  | CC(=O)N1c2ccc(-n3cnc(C)c3)cc2[C@@H](Nc2ccc(C#N)cn2)C[C@H]1C (racemic) [Example 159, 6-{[(cis)-1-acetyl-2-methyl-6-(4-methyl-1H-imidazol-1-yl)-1,2,3,4-tetrahydro-4-quinolinyl]amino}-3-pyridinecarbonitrile]
 | ≤ 10 µM | CC[C@@H]1C[C@H](Nc2ccccc2)c2cc(-c3ccc(C(=O)O)cc3)ccc2N1C(C)=O (racemic) [Example 162, 4-[(cis)-1-Acetyl-2-ethyl-4-(phenylamino)-1,2,3,4-tetrahydro-6-quinolinyl]benzoic acid]
 | ≤ 10 µM | CC(=O)N1c2ccc(-c3ccc(CN4CCCCC4)cc3)cc2[C@@H](Nc2ccc(Cl)cn2)C[C@H]1C (racemic) [Example 136, (cis)-1-Acetyl-N-(5-chloro-2-pyridinyl)-2-methyl-6-[4-(1-piperidinylmethyl)phenyl]-1,2,3,4-tetrahydro-4-quinolinamine formate salt]
> 10 µM |  | CNCCn1cc(-c2ccc3c(c2)[C@H](Nc2ccncc2)C[C@H](C)N3C(C)=O)cn1 [Example 130, (2S,4R)-1-Acetyl-2-methyl-6-{1-[2-(methylamino)ethyl]-1H-pyrazol-4-yl}-N-4-pyridinyl-1,2,3,4-tetrahydro-4-quinolinamine formate salt]
≤ 10 µM |  | CNCCn1cc(-c2ccc3c(c2)[C@H](Nc2cnccn2)C[C@H](C)N3C(C)=O)cn1 [Example 152, (2S,4R)-1-Acetyl-2-methyl-6-{1-[2-(methylamino)ethyl]-1H-pyrazol-4-yl}-N-2-pyrazinyl-1,2,3,4-tetrahydro-4-quinolinamine hydrochloride]
 | ≤ 10 µM | CC(=O)N1c2ccc(-c3ccc(N)nc3)cc2[C@@H](Nc2ccccc2)C[C@H]1C (racemic) [Example 132, (cis)-1-Acetyl-6-(6-amino-3-pyridinyl)-2-methyl-N-phenyl-1,2,3,4-tetrahydro-4-quinolinamine hydrochloride]
≤ 10 µM |  | CNCCn1cc(-c2ccc3c(c2)[C@H](Nc2cccc(C)n2)C[C@H](C)N3C(C)=O)cn1 [Example 147, (2S,4R)-1-Acetyl-2-methyl-6-{1-[2-(methylamino)ethyl]-1H-pyrazol-4-yl}-N-(6-methyl-2-pyridinyl)-1,2,3,4-tetrahydro-4-quinolinamine hydrochloride]
≤ 10 µM |  | CNCCn1cc(-c2ccc3c(c2)[C@H](Nc2ccc(F)cn2)C[C@H](C)N3C(C)=O)cn1 [Example 154, (2S,4R)-1-Acetyl-N-(5-fluoro-2-pyridinyl)-2-methyl-6-{1-[2-(methylamino)ethyl]-1H-pyrazol-4-yl}-1,2,3,4-tetrahydro-4-quinolinamine hydrochloride]
 | ≤ 10 µM | CCC[C@@H]1C[C@H](Nc2ccc(C)cc2)c2cc(-c3ccc(CN4CCCCC4)cc3)ccc2N1C(C)=O [Example 189]
 | ≤ 10 µM | CC(=O)N1c2ccc(-c3ccc(C(=O)O)cc3)cc2[C@@H](Nc2cccc(F)c2)C[C@H]1C [Example 179]
≤ 10 µM |  | CNCCn1cc(-c2ccc3c(c2)[C@H](Nc2ncccc2F)C[C@H](C)N3C(C)=O)cn1 [Example 150, (2S,4R)-1-Acetyl-N-(3-fluoro-2-pyridinyl)-2-methyl-6-{1-[2-(methylamino)ethyl]-1H-pyrazol-4-yl}-1,2,3,4-tetrahydro-4-quinolinamine hydrochloride]
≤ 10 µM |  | CNCCn1cc(-c2ccc3c(c2)[C@H](Nc2cc(F)ccn2)C[C@H](C)N3C(C)=O)cn1 [Example 156, (2S,4R)-1-Acetyl-N-(4-fluoro-2-pyridinyl)-2-methyl-6-{1-[2-(methylamino)ethyl]-1H-pyrazol-4-yl}-1,2,3,4-tetrahydro-4-quinolinamine hydrochloride]
≤ 10 µM |  | CNCCn1cc(-c2ccc3c(c2)[C@H](Nc2ccc(C)cn2)C[C@H](C)N3C(C)=O)cn1 [Example 155, (2S,4R)-1-Acetyl-2-methyl-6-{1-[2-(methylamino)ethyl]-1H-pyrazol-4-yl}-N-(5-methyl-2-pyridinyl)-1,2,3,4-tetrahydro-4-quinolinamine hydrochloride]
> 10 µM |  | CC(=O)N1c2ccc(-n3cnc(C)c3)cc2[C@@H](Nc2ccc(C(=O)O)cn2)C[C@H]1C (racemic) [Example 143, 6-{[(cis)-1-acetyl-2-methyl-6-(4-methyl-1H-imidazol-1-yl)-1,2,3,4-tetrahydro-4-quinolinyl]amino}-3-pyridinecarboxylic acid]
 | ≤ 10 µM | CNCc1ccc(-c2ccc3c(c2)[C@H](Nc2ccc(F)cn2)C[C@H](C)N3C(C)=O)cc1 [Example 157, (2S,4R)-1-Acetyl-N-(5-fluoro-2-pyridinyl)-2-methyl-6-{4-[(methylamino)methyl]phenyl}-1,2,3,4-tetrahydro-4-quinolinamine hydrochloride]
